Reference: publication PMC12371494, “Discovery of YTHDF2 Ligands by Fragment-Based Design” (ACS Bio & Med Chem Au, 2025)
Several values for one entry are separate records, joined by “and”; a condition that tells them apart may be missing. Equal values may be shown once.

Key:
GST-YTHDF1 = target: T1, GST-YTHDF1 (Homo sapiens, UniProt Q9BYJ9); assay: HTRF-based binding assay, DF1; conditions: for Single-dose residual signal at 100 µM, DF1: 100 µM compound, normalized; for IC50: dose-response
T1 construct: made in house
T1 sequence (Q9BYJ9 1-559): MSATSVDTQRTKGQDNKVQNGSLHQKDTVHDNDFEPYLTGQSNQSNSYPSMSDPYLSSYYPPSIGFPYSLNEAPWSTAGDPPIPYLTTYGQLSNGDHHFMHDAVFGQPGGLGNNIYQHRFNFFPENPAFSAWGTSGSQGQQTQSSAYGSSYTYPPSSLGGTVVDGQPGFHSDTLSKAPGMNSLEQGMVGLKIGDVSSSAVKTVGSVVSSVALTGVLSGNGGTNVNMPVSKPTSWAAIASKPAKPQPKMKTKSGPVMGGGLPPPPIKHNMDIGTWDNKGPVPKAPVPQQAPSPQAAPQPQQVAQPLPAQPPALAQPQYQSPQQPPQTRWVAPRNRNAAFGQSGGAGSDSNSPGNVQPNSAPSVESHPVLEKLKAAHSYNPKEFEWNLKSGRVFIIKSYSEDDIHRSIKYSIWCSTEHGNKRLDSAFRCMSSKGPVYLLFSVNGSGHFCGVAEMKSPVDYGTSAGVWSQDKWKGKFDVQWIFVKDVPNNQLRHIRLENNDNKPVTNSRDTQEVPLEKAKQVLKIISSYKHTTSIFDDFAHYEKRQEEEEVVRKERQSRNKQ
Description: (§1) The HTRF-based assay was employed to evaluate the selectivity of the series against other DF proteins.
(§2) A dose–response experiment on DF1 and DF3 was conducted for compounds 17, 18, 23, and 27 (Figure S5). Compounds 17, 18, and 27 are active on three DF proteins. […] In contrast, compound 23 is selective for DF2, with residual signals (at the highest employed concentration of 62.5 μM) of 51 and 87% for DF1 and DF3, respectively.
(§3) GST-YTHDC1, GST-YTHDF1, GST-YTHDF2, and GST-YTHDF3 were purified as previously reported. The HTRF assay was assembled as detailed in ref with the only difference being that the starting concentration of the dose–response experiments used for the IC50 determination was variated dependently from the tested compound. The same protocol was applied to the four proteins. The competitive inhibition data of GST-YTHDF1 (single dose experiment at 100 μM compound concentration and dose–response curves), GST-YTHDF3 (single dose experiment at 100 μM compound concentration and dose–response curves), and GST-YTHDF2 (single dose experiment at 100 μM compound concentration) were normalized as described in ref to mitigate interference. The signal was measured as described in ref .

GST-YTHDF3 = target: T2, GST-YTHDF3 (Homo sapiens, UniProt Q7Z739); assay: HTRF-based binding assay, DF3; conditions: for Single-dose residual signal at 100 µM, DF3: 100 µM compound, normalized; for IC50: dose-response
T2 construct: made in house
T2 sequence (Q7Z739 1-585): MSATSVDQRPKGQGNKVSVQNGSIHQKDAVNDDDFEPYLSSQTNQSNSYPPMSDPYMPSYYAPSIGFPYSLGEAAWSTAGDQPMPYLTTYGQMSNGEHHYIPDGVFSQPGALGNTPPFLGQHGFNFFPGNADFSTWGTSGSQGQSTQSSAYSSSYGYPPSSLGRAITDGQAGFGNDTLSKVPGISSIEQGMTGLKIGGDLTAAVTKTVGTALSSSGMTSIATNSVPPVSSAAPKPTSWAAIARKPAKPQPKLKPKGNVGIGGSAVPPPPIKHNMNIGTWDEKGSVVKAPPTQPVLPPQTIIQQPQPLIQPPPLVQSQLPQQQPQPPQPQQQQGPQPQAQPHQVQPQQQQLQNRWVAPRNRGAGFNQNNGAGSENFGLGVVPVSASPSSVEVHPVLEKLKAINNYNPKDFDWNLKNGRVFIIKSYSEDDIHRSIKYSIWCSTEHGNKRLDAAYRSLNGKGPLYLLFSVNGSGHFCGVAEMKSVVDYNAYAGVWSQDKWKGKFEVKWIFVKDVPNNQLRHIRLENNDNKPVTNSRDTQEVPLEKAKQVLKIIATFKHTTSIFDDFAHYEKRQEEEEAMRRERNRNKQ
Description: as §1, §2, §3

YTHDC2 = target: T3, YTHDC2 (Homo sapiens, UniProt Q9H6S0); assay: DNA-fluorescence polarization (FP) competition assay, DC2; assay type: binding; conditions: for Kd: Cheng-Prusoff from FP IC50, probe Kd 7 nM, two biological replicates; for Selectivity DF2 over DC2 (Kd ratio DC2/DF2): FP Kd values
T3 construct: YTH domain of YTHDC2 (residues 1285–1424, cloned into the pGEX-6P-1 vector); made in house; host or cells: Rosetta (DE3) cells (E. coli)
T3 sequence (Q9H6S0 1285-1424): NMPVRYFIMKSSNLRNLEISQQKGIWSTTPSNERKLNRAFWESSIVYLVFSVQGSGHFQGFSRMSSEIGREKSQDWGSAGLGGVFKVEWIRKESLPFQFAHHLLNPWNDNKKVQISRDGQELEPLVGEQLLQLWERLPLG
Description: The binding affinity for DC1 could not be evaluated by HTRF because of interference of the compounds with the assay, which has a smaller assay window when performed with DC1 compared to the DF proteins. Thus, the FP assay was used to evaluate binding to DC1 and DC2.
The N-terminally GST-tagged YTH domain of YTHDC2 (residues 1285–1424, cloned into the pGEX-6P-1 vector) was overexpressed in Rosetta (DE3) cells grown overnight at 20 °C following induction with 0.4 mM isopropyl-β-D-thiogalactopyranoside (IPTG) at an OD600 of 0.8. The cells were harvested and resuspended in a lysis buffer containing 100 mM Tris–HCl (pH 8.0) and 500 mM NaCl. After cell lysis, the lysate was clarified by centrifugation at 48,000g for 1 h, and the soluble proteins were loaded onto a column packed with Glutathione Sepharose 4B (GE Healthcare), then eluted with 20 mM reduced glutathione in lysis buffer. Finally, a size-exclusion chromatography step (HiLoad 16/600 Superdex 200 pg column, GE Healthcare) was performed to further purify the protein in 20 mM Tris–HCl (pH 7.4) and 150 mM NaCl.
For fluorescence polarization (FP) experiments, a 5′-fluorescein-labeled m^6A-DNA probe (5′-FAM-[…](m6A)-CTAAGCT-3′) was synthesized by Microsynth AG.
The final concentration of the fluorescein-labeled DNA was kept constant at 3 nM. For YTHDC2 measurements, the protein concentration was set to 25 nM, while for YTHDF2 measurements, it was set to 10 nM, and for YTHDC1, it was set at 15 nM. The compound concentration was serially diluted to obtain the dose–response curve. The competition experiments were conducted in a final volume of 20 μL in a buffer containing 20 mM Tris–HCl (pH 7.4), 150 mM NaCl, and 0.01% bovine serum albumin (BSA), using a 384-well black flat-bottomed microplate (Corning 3575).
After incubating the mixture for 1 h, the anisotropy values were measured using a Tecan SPARK plate reader with 485/20 nm excitation and 535/25 nm emission polarization filters, suitable for fluorescein, at 25 °C. To obtain the equilibrium dissociation constant (K d), the IC50 values were first derived by fitting a dose–response curve to the data using nonlinear regression analysis in GraphPad Prism. These IC50 values were then converted to K d by using the Cheng–Prusoff equation: Kd=IC50/1+[L]/Kdprobe
IC50 is the observed value from FP assay, [L] is the probe concentration used, and K d ^probe is the binding affinity of probe for the target.

Compound | Single-dose residual signal at 100 µM, DF1 (GST-YTHDF1; HTRF) [%] | Single-dose residual signal at 100 µM, DF3 (GST-YTHDF3; HTRF) [%] | Kd (YTHDC2) | Selectivity DF2 over DC2 (Kd ratio DC2/DF2) (YTHDC2) | IC50 (GST-YTHDF1) [µM] | IC50 (GST-YTHDF3) [µM] | Residual signal DF1 at highest concentration (GST-YTHDF1; HTRF, 62.5 μM compound) [%] | Residual signal DF3 at highest concentration (GST-YTHDF3; HTRF, 62.5 μM compound) [%]
O=c1[nH]c(=S)[nH]c2sccc12 [Compound 14] | 15 | 23 | 88 µM | ~20 fold |  |  |  | 
O=c1[nH]c(=S)[nH]c2sc(Cc3ccccc3)cc12 [Compound S85] | 34 | 35 | 160 µM |  |  |  |  | 
O=C(O)c1csc2[nH]c(=S)[nH]c(=O)c12 [Compound S90] | 36 | 34 | 240 µM |  |  |  |  | 
CCOC(=O)c1csc2[nH]c(=S)[nH]c(=O)c12 [Compound S89] | 16 | 16 | 450 µM and > 400 µM |  |  |  |  | 
O=c1[nH]c(=S)[nH]c2scc(-c3ccc(O)cc3)c12 [Compound 19] | 8 | 13 | 40 µM |  |  |  |  | 
Cc1c(-c2ccc([N+](=O)[O-])cc2)sc2[nH]c(=S)[nH]c(=O)c12 [Compound 26] | 12 | 15 | 35 µM |  |  |  |  | 
O=c1[nH]c(=S)[nH]c2scc(C3CCCCC3)c12 [Compound S77] | 32 | 35 | 240 µM |  |  |  |  | 
Cc1c(C(=O)NCc2ccccc2)sc2[nH]c(=S)[nH]c(=O)c12 [Compound 22] | 17 | 18 | 270 µM |  |  |  |  | 
Cc1c(-c2ccc(N)cc2)sc2[nH]c(=S)[nH]c(=O)c12 [Compound 27] | 6 | 5 | 30 µM |  | 13 | 50 |  | 
Cc1c(C(=O)NCc2cccc(C(=O)O)c2)sc2[nH]c(=S)[nH]c(=O)c12 [Compound 24] | 5 | 12 | 41 µM |  |  |  |  | 
COc1ccc(-c2csc3[nH]c(=S)[nH]c(=O)c23)cc1 [Compound S76] | 12 | 12 | 54 µM |  |  |  |  | 
Cc1c(C(=O)NCCCC(=O)O)sc2[nH]c(=S)[nH]c(=O)c12 [Compound 25] | 6 | 26 | 130 µM |  |  |  |  | 
NC(=O)c1csc2[nH]c(=S)[nH]c(=O)c12 [Compound 31] | 27 | 36 | 18 µM |  |  |  |  | 
Cc1c(C(=O)NCc2cccnc2)sc2[nH]c(=S)[nH]c(=O)c12 [Compound 23] | 20 | 33 | > 400 µM and 450 µM | about 350 fold | > 60 | > 60 | 51 | 87
COC(=O)c1ccc(-c2csc3[nH]c(=S)[nH]c(=O)c23)cc1 [Compound 17] | 7 | 7 | 6.3 µM |  | 10 | 21 |  | 
CC(=O)c1sc2[nH]c(=S)[nH]c(=O)c2c1C [Compound 20] | 8 | 12 | 46 µM |  |  |  |  | 
O=C(O)c1ccc(-c2csc3[nH]c(=S)[nH]c(=O)c23)cc1 [Compound 18] | 3 | 19 | 7.7 µM |  | 11 | 53 |  | 
O=c1[nH]c(=S)[nH]c2scc(-c3ccc(Br)cc3)c12 [Compound S75] | 9 | 8 | 37 µM |  |  |  |  | 
CCOC(=O)c1sc2[nH]c(=S)[nH]c(=O)c2c1C [Compound 21] | 12 | 10 | 230 µM |  |  |  |  | 
